Values joined by “and” are separate entries in the source; they are usually repeats but may differ in a detail not shown here. Identical values can stand only once. Marks after values point to notes of the source that are not given here.

Assay [1] has as its system acetic acid-induced writhing. Nature of the assay: Antinociceptive screen (writhing test). As to conditions: i.p. 30 min before 0.6% acetic acid, writhes counted over 30 min. Type of assay: in vivo, Wistar rats. In general terms: An intraperitoneal irritant provokes the stretching counted in writhing tests.
Another assay deals with sciatic nerve crush. Nature of the assay: Sciatic Functional Index after sciatic nerve crush. Type of assay: in vivo, Wistar rats. An excerpt:
SFI is the current standard for measuring functional recovery following rat sciatic nerve crush. Its calculation involves the measurement of wide-ranging relationships between feet and toes of the hindlimb of recovering animals. SFI values close to −100 indicate severe damage, while SFI values close to 0 indicate normal function. The treated rats improved their walk and the relationship between feet and toes of the crushed hindlimbs starting from day 14 to day 21.
One day prior to the surgery and the behavioral testing, Wistar rats were handled by the investigators and introduced to the testing environment for a brief period of time. Rats were anesthetized with chloral hydrate 4.5% (1 mL/100 g). […] After the exposure, the nerve was crushed once for 30 s at standardized force. The muscle was reapproximated and the skin incision was closed using 6 to 0 sutures. The examination of the loss of sensory and motor function in the operated limb established the crush completeness. Digits in the operated limb were pinched with a blunt forceps. Absence of foot withdrawal and vocalization was recorded as loss of sensory and motor function. Animals were placed under a heating lamp until they recovered from the anesthesia and they returned to their home cages.
The tested solutions were freshly prepared on surgery day (day 0).
[…] The day of the surgery is considered as day 0 [36, 37, 38].
In the present study, the plantar surfaces of the hindlimbs of the rats were impregnated with ink and then the animals were allowed to walk on a paper along a corridor, leaving footprints during walking.
A wooden corridor (1 m × 8 cm) with raised sidewalls was used. Two and a half white paper strips (40 × 7.5 cm) were placed along the corridor and were fixed with adhesive tape closely together and at the base and the sidewalls of the corridor. Each rat was trained to walk steadily along the corridor without stops until it made three at least successful efforts of continuous walking. The footprints were allowed to dry and were then converted into digital images using a computer and a high resolution scanner. The image processing was done by using the ImageJ. This is an open-source image analysis software created in 1997 by Rayne Rasband (National Institute of Health), widely used in medical applications, especially neuroscience, for measuring distances and surface and plotting the data. The footprints were analyzed as described by Bain et al. in measurements were included: • (i) print length (PL): distance from the heel to the third toe, • (ii) toe spread (TS) distance from the first to the fifth toe on both sides and • (iii) intermediate toe spread (ITS) the distance between the middle of the second and fourth toe
All measurements were taken both from the experimental (EPL, ETS, EIT) and the normal (NPL, NTS, NIT) side. The formula used to calculate SFI was the following: SFI = −38.3 (EPL − NPL)/NPL + 109.5 (ETS − NTS)/NTS + 13.3 (EIT − NIT)/NIT − 8.8

Assay [2] concerns carrageenin-induced rat paw oedema. Nature of the assay: Inhibition of the carrageenin-induced rat paw oedema. Type of assay: in vivo, Fisher-344 rats. As to conditions: 0.01 mmol/1 kg, i.p., 3.5 h after carrageenin. Here is the method: Anti-inflammatory tests were conducted on Fisher-344 inbred rats of ca. 200 g body weight whereas antinociception and motor and sensory functions after sciatic nerve crash were performed on Wistar rats. Both sexes were used. Females pregnant were excluded. Each group was composed of 6 animals. The animals, which have been bred in our laboratory, were housed under standard conditions and received a diet of commercial food pellets and water ad libitum during the maintenance. Our studies were carried out in accordance with recognised guidelines on animal experimentation.
The tested compounds 0.01 mmol/kg body weight were suspended in water with few drops of Tween 80 and ground in a mortar before use. Controls received the liquid vehicle only. All the in vivo experiments were repeated at least in triplicate and were subjected to statistic analysis using the student’s t-test.
Oedema was induced in the right hind paw of Fisher 344 rats by the intradermal injection of 0.1 mL 2% carrageenin in water. Each group was composed of 6 animals which they were entirely fasted during the experiment period. The tested compounds 0.01 mmol/kg body weight, were given intraperitoneally simultaneously with the carrageenin injection. The rats were euthanized 3.5 h after carrageenin injection. The difference between the weight of the injected and not-injected paws was calculated for each animal. The change in paw weight was compared with that in control animals (treated with water) and expressed as a percent inhibition of the oedema (ICPE % values in Table 1). Indomethacin 0.01 mmol/kg was used as reference compound. ICPE % are the mean values from two different experiments with a standard error of the mean less than 10%.

Assay [3] is described as follows: Inhibition of linoleic acid lipid peroxidation (AAPH). The settings on record: % inhibition at 100 μM; pH 7.4, 37 °C. An outline of the steps: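 Sodium linoleate in 0.05 M phosphate buffer pH 7.4 at 37 °C under air, oxidation started with AAPH as radical initiator. Conjugated diene hydroperoxide formation followed as absorbance increase at 234 nm, with DMSO-matched controls.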

Setting [4] is: single i.p. dose 0.01 mmol/mL/kg, 8 h after surgery.

Regarding `CC(=O)Nc1ccc(OC(=O)/C=C/c2cccc(Oc3ccccc3)c2)cc1` [Compound 2a, (E)-4-Acetamidophenyl 3-(3-phenoxyphenyl)acrylate], the “% ANA (in vivo analgesic-antinociceptive activity)” value in assay [1] (0.01 mmol/0.1 kg) is 91 ** %. In addition, the inhibition in vivo at 0.01 mmol/0.1 kg in assay [1] (Rattus norvegicus, ip, 0.5 h, read-out: % ANA (in vivo analgesic-antinociceptive activity)) worked out at 91%. In addition, the “SFI, Day before Crash” value in the assay with sciatic nerve crush (baseline before surgery and dosing) is reported as −10.26. In the assay with sciatic nerve crush (setting [4]), the “SFI, Day-1” value is −93.3; the “SFI, Day-7” value is on record as −93.3; the “SFI, Day-14” value was −35.45; the “SFI, Day-21” value is listed as −20.06. Moreover, in assay [2], the “% ICPE (carrageenin-induced rat paw oedema inhibition)” value is 36.5% and 36.5 ** %. In addition, the “AAPH % (% inhibition of lipid peroxidation)” value in assay [3] was found to be 90%.

(Values after article PMC6271731, “Multitarget Molecular Hybrids of Cinnamic Acids” (Molecules, 2014).)
